Assay results: article PMC6934184, “Selective DNA-PKcs inhibition extends the therapeutic index of localized radiotherapy and chemotherapy” (The Journal of Clinical Investigation, 2019)

Target: T1, RET M918T (Homo sapiens, UniProt P07949, M918T)
T1 construct: purchased Thermo Fisher Scientific (Life Technologies) SelectScreen
Test: SelectScreen LanthaScreen
Type: binding
Conditions: read-out: % displacement
Outline: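 NU5455 was profiled across the SelectScreen Broad panel of kinase activity and binding assays. Z'LYTE reactions such as CSF1R ran at apparent Km ATP, while the Adapta CAMK1 assay used ATP listed as 10. Values are given as percent.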

T1 sequence (P07949 29-1114 M918T): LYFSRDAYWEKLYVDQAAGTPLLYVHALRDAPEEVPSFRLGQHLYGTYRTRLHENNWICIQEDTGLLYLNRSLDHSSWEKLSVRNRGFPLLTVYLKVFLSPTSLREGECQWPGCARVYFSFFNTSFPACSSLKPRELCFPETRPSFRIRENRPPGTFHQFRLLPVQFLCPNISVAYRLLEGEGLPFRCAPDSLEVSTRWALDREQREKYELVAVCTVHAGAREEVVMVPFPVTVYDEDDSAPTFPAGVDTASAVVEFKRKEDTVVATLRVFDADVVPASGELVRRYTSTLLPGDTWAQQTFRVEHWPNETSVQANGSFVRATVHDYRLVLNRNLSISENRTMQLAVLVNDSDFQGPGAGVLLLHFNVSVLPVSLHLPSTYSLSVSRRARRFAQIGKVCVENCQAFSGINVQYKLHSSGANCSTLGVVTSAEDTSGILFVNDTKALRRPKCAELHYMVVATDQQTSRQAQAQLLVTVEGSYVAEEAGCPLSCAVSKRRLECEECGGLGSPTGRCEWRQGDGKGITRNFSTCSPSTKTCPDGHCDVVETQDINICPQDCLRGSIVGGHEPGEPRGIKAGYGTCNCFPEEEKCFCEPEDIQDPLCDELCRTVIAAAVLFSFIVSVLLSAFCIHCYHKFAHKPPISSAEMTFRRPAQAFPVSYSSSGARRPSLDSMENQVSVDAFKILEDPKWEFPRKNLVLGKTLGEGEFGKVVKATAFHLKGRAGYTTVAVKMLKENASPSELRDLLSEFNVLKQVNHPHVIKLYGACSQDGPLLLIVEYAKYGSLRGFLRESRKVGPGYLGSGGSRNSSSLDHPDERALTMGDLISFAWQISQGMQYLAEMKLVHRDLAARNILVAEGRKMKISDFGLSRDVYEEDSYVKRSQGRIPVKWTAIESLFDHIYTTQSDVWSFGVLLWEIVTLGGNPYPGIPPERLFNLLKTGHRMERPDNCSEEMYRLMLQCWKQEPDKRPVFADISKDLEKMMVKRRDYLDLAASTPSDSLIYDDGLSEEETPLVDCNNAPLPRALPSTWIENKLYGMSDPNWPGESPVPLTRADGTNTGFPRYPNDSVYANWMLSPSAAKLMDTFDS

CN(C(=O)CN1CCOCC1)c1ccc2sc3c(-c4cccc5c(=O)cc(N6CC7CCC(C6)O7)oc45)cccc3c2c1 [NU5455]
inhibition at 1 µM: -3.5%
